Reference: US20070249725A1, “Pharmaceutical formulations of sympathetic antagonist for the treatment of chronic muscle pain” (priority 2006, published 2007)
Counter-ions that a name gives are not always drawn.

Experiments:
[1] = Multicenter placebo-controlled dose response study of intramuscular PBZ: safety and tolerance (Example II); assay type: in vivo, human; details: most frequent adverse event
[2] = as above; assay type: in vivo, human
Protocol: This was a multicenter, randomized, placebo-controlled, double-blind, dose response study of intramuscular phenoxybenzamine hydrochloride (PBZ) versus vehicle and saline placebos. Phenoxybenzamine formulation known in the art (propylene glycol and alcohol) and diluted in saline at the time of injection were evaluated. […] Patients with pain in the most commonly affected regions, the upper and lower back, were studied. Patients enrolled in this study were male or female with 4 months to 8 years of myofascial pain syndrome with identifiable active trigger points. Patients were required to have had EMG documented triggers points and meet the criteria of <10 uV in the adjacent muscle site and have a minimum of a 2:1 ratio of trigger point amplitude: adjacent amplitude. Attempts were made to obtain maximum amplitude in the trigger point.
The primary objectives of this study were to evaluate the safety, tolerance, and efficacy of 4 doses (0.1, 0.3, 1.0, or 2.4 mg) of phenoxybenzamine per intramuscular injection site. The vehicle placebo group received vehicle in a concentration equivalent to the active doses. A second placebo was saline. All injections were of 0.3 ml in volume. Up to 10 trigger points were injected at each treatment session. There were up to 2 treatment sessions up to 10 days apart. The primary efficacy evaluation was made at week 12 of treatment. The Visual Analogue Pain Scale (VAS) was used to assess pain in the affected region before and after treatment. Secondary efficacy assessments included the McGill Pain Questionnaire (MPQ), the Spinal Function Sort (SFS) and the SF-36 Quality of Life questionnaire.
Thirty-two of the 79 patients (41%) in the saline placebo group, 33 of 83 patients (40%) in the vehicle placebo group, 35 of the 86 patients (41%) in the 1 mg group, and 37 of the 81 patients (46%) in the 2.4 mg group experienced 1 or more treatment-emergent adverse experiences. For all treatment groups combined, the most common adverse experiences observed were dizziness: 8%; pain 5%; nausea: 3%, and sweating: 3%. […] The most frequent adverse experiences were dizziness (8%) and pain (5%), followed by headache, sweating, and nausea (3% each).

[3] = cited from earlier work
[4] = 1 mg PBZ per injection site, 86 patients

SMILES: CC(COc1ccccc1)N(CCCl)Cc1ccccc1 (centres unmarked) [Phenoxybenzamine Hydrochloride, phenoxybenzamine hydrochloride]
- injection site pain, share of all adverse events [1]: 77%
- Dizziness, % of patients ([2]; 0.1 mg PBZ per injection site): 5%
- Dizziness, number of patients ([2]; 0.1 mg PBZ per injection site): 1
- Ecchymosis, % of patients ([2]; 0.1 mg PBZ per injection site): 0 (0%)
- Ecchymosis, number of patients ([2]; 0.1 mg PBZ per injection site): 0 (0%)
- Flu syndrome, % of patients ([2]; 0.1 mg PBZ per injection site): 0 (0%)
- Flu syndrome, number of patients ([2]; 0.1 mg PBZ per injection site): 0 (0%)
- Headache, % of patients ([2]; 0.1 mg PBZ per injection site): 0 (0%)
- Headache, number of patients ([2]; 0.1 mg PBZ per injection site): 0 (0%)
- Hypotension, % of patients ([2]; 0.1 mg PBZ per injection site): 0 (0%)
- Hypotension, number of patients ([2]; 0.1 mg PBZ per injection site): 0 (0%)
- Infection, % of patients ([2]; 0.1 mg PBZ per injection site): 0 (0%)
- Infection, number of patients ([2]; 0.1 mg PBZ per injection site): 0 (0%)
- Injection site edema, % of patients ([2]; 0.1 mg PBZ per injection site): 0 (0%)
- Injection site edema, number of patients ([2]; 0.1 mg PBZ per injection site): 0 (0%)
- Nausea, % of patients ([2]; 0.1 mg PBZ per injection site): 0 (0%)
- Nausea, number of patients ([2]; 0.1 mg PBZ per injection site): 0 (0%)
- Pain, % of patients ([2]; 0.1 mg PBZ per injection site): 5%
- Pain, number of patients ([2]; 0.1 mg PBZ per injection site): 1
- Sweating, % of patients ([2]; 0.1 mg PBZ per injection site): 0 (0%)
- Sweating, number of patients ([2]; 0.1 mg PBZ per injection site): 0 (0%)
- Syncope, % of patients ([2]; 0.1 mg PBZ per injection site): 0 (0%)
- Syncope, number of patients ([2]; 0.1 mg PBZ per injection site): 0 (0%)
- TOTAL NUMBER OF PATIENTS reporting treatment-emergent adverse experiences, % of patients ([2]; 0.1 mg PBZ per injection site): (33%)
- TOTAL NUMBER OF PATIENTS reporting treatment-emergent adverse experiences, number ([2]; 0.1 mg PBZ per injection site): 7
- Dizziness, % of patients ([2]; 0.3 mg PBZ per injection site): 0 (0%)
- Dizziness, number of patients ([2]; 0.3 mg PBZ per injection site): 0 (0%)
- Ecchymosis, % of patients ([2]; 0.3 mg PBZ per injection site): 0 (0%)
- Ecchymosis, number of patients ([2]; 0.3 mg PBZ per injection site): 0 (0%)
- Flu syndrome, % of patients ([2]; 0.3 mg PBZ per injection site): 5%
- Flu syndrome, number of patients ([2]; 0.3 mg PBZ per injection site): 1
- Headache, % of patients ([2]; 0.3 mg PBZ per injection site): 5%
- Headache, number of patients ([2]; 0.3 mg PBZ per injection site): 1
- Hypotension, % of patients ([2]; 0.3 mg PBZ per injection site): 0 (0%)
- Hypotension, number of patients ([2]; 0.3 mg PBZ per injection site): 0 (0%)
- Infection, % of patients ([2]; 0.3 mg PBZ per injection site): 5%
- Infection, number of patients ([2]; 0.3 mg PBZ per injection site): 1
- Injection site edema, % of patients ([2]; 0.3 mg PBZ per injection site): 0 (0%)
- Injection site edema, number of patients ([2]; 0.3 mg PBZ per injection site): 0 (0%)
- Nausea, % of patients ([2]; 0.3 mg PBZ per injection site): 5%
- Nausea, number of patients ([2]; 0.3 mg PBZ per injection site): 1
- Pain, % of patients ([2]; 0.3 mg PBZ per injection site): 0 (0%)
- Pain, number of patients ([2]; 0.3 mg PBZ per injection site): 0 (0%)
- Sweating, % of patients ([2]; 0.3 mg PBZ per injection site): 0 (0%)
- Sweating, number of patients ([2]; 0.3 mg PBZ per injection site): 0 (0%)
- Syncope, % of patients ([2]; 0.3 mg PBZ per injection site): 0 (0%)
- Syncope, number of patients ([2]; 0.3 mg PBZ per injection site): 0 (0%)
- TOTAL NUMBER OF PATIENTS reporting treatment-emergent adverse experiences, % of patients ([2]; 0.3 mg PBZ per injection site): (23%)
- TOTAL NUMBER OF PATIENTS reporting treatment-emergent adverse experiences, number ([2]; 0.3 mg PBZ per injection site): 5
- Dizziness, % of patients ([2]; 1 mg PBZ per injection site): 13%
- Dizziness, number of patients ([2]; 1 mg PBZ per injection site): 11
- Ecchymosis, % of patients ([2]; 1 mg PBZ per injection site): 1 (1%)
- Ecchymosis, number of patients ([2]; 1 mg PBZ per injection site): 1 (1%)
- Flu syndrome, % of patients ([2]; 1 mg PBZ per injection site): 3 (3%)
- Flu syndrome, number of patients ([2]; 1 mg PBZ per injection site): 3 (3%)
- Headache, % of patients ([2]; 1 mg PBZ per injection site): 6%
- Headache, number of patients ([2]; 1 mg PBZ per injection site): 5
- Hypotension, % of patients ([2]; 1 mg PBZ per injection site): 2 (2%)
- Hypotension, number of patients ([2]; 1 mg PBZ per injection site): 2 (2%)
- Infection, % of patients ([2]; 1 mg PBZ per injection site): 2 (2%)
- Infection, number of patients ([2]; 1 mg PBZ per injection site): 2 (2%)
- Injection site edema, % of patients ([2]; 1 mg PBZ per injection site): 2 (2%)
- Injection site edema, number of patients ([2]; 1 mg PBZ per injection site): 2 (2%)
- Nausea, % of patients ([2]; 1 mg PBZ per injection site): 1 (1%)
- Nausea, number of patients ([2]; 1 mg PBZ per injection site): 1 (1%)
- Pain, % of patients ([2]; 1 mg PBZ per injection site): 8%
- Pain, number of patients ([2]; 1 mg PBZ per injection site): 7
- Sweating, % of patients ([2]; 1 mg PBZ per injection site): 3 (3%)
- Sweating, number of patients ([2]; 1 mg PBZ per injection site): 3 (3%)
- Syncope, % of patients ([2]; 1 mg PBZ per injection site): 2 (2%)
- Syncope, number of patients ([2]; 1 mg PBZ per injection site): 2 (2%)
- TOTAL NUMBER OF PATIENTS reporting treatment-emergent adverse experiences, % of patients [2, 4]: 41%
- TOTAL NUMBER OF PATIENTS reporting treatment-emergent adverse experiences, number [2, 4]: 35
- Dizziness, % of patients ([2]; 2.4 mg PBZ per injection site): (10%)
- Dizziness, number of patients ([2]; 2.4 mg PBZ per injection site): 8
- Ecchymosis, % of patients ([2]; 2.4 mg PBZ per injection site): 1 (1%)
- Ecchymosis, number of patients ([2]; 2.4 mg PBZ per injection site): 1 (1%)
- Flu syndrome, % of patients ([2]; 2.4 mg PBZ per injection site): 1 (1%)
- Flu syndrome, number of patients ([2]; 2.4 mg PBZ per injection site): 1 (1%)
- Headache, % of patients ([2]; 2.4 mg PBZ per injection site): 0 (0%)
- Headache, number of patients ([2]; 2.4 mg PBZ per injection site): 0 (0%)
- Hypotension, % of patients ([2]; 2.4 mg PBZ per injection site): 1 (1%)
- Hypotension, number of patients ([2]; 2.4 mg PBZ per injection site): 1 (1%)
- Infection, % of patients ([2]; 2.4 mg PBZ per injection site): 1 (1%)
- Infection, number of patients ([2]; 2.4 mg PBZ per injection site): 1 (1%)
- Injection site edema, % of patients ([2]; 2.4 mg PBZ per injection site): 9%
- Injection site edema, number of patients ([2]; 2.4 mg PBZ per injection site): 7
- Nausea, % of patients ([2]; 2.4 mg PBZ per injection site): 5%
- Nausea, number of patients ([2]; 2.4 mg PBZ per injection site): 4
- Pain, % of patients ([2]; 2.4 mg PBZ per injection site): 6%
- Pain, number of patients ([2]; 2.4 mg PBZ per injection site): 5
- Sweating, % of patients ([2]; 2.4 mg PBZ per injection site): 6%
- Sweating, number of patients ([2]; 2.4 mg PBZ per injection site): 5
- Syncope, % of patients ([2]; 2.4 mg PBZ per injection site): 1 (1%)
- Syncope, number of patients ([2]; 2.4 mg PBZ per injection site): 1 (1%)
- TOTAL NUMBER OF PATIENTS reporting treatment-emergent adverse experiences, number ([2]; 2.4 mg PBZ per injection site, 81 patients): 37
- injection site soreness compared with placebo groups ([2]; high dose groups, first and second treatments): Significantly more patients
- injection site pain, mean duration ([2]; in vivo): less than 10 days
- injection site pain, severity ([2]; in vivo): mild to moderate
- side effects at the injection site ([2]; low dosages): caused some adverse side effected at the injection site
- irritation at the site of the injection [3]: irritation of the muscle at the site of the injection can occur
